The assay addresses T1, human M1 receptor (hCHRM1) (Homo sapiens, UniProt P11229).
T1 construct: expressed in transfected cells
T1 sequence (P11229 1-460): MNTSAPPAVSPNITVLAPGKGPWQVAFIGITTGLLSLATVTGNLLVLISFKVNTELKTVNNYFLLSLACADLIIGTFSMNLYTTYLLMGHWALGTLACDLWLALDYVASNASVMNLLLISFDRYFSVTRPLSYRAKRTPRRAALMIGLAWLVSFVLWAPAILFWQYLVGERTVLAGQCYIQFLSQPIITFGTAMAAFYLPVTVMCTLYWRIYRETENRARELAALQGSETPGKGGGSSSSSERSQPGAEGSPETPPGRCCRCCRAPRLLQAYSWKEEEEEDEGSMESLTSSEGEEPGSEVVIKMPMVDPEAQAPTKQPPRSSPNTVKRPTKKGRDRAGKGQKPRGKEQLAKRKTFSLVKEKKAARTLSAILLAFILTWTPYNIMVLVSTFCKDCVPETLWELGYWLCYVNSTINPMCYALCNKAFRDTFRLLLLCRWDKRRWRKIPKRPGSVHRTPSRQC
Kind of assay: Measurement of M1 receptor positive allosteric modulator (M1PAM) activity, calcium fluorescence in CHO-K1 cells.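 For EC50: potency reported as IP value in nM.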 Conditions: for activity (%) at 10 μM: 10 μM test compound with acetylcholine at EC20, 100% = acetylcholine 1 μM, 0% = DMSO; for EC50: inflection point in the concentration-dependent curve, acetylcholine at EC20 (final 0.6-0.8 nM), CHO-K1 cells expressing human M1, Fluo-4, FLIPRtetra, read-out: IP value. The format is cell-based. Here is the method:
Measurement of M1 Receptor Positive Allosteric Modulator (M1PAM) Activity
The activity of a test compound in the presence of acetylcholine at EC20 concentration (final concentration 0.6-0.8 nM), which affords an action corresponding to about 20% of the maximum activity, was measured as PAM activity. The method is as follows. CHO-K1 cells stably expressing a human M1 receptor (hCHRM1) were plated on a 384-well black clear bottom plate (BD Falcon) at 5,000 cells/well, and cultured in an incubator at 37° C., 5% CO2 for 1 day. The medium in the cell plate was removed, and assay buffer A containing calcium indicator (Recording medium (DOJINDO LABORATORIES), 0.1% BSA (Wako Pure Chemical Industries, Ltd.), 2.5 μg/mL Fluo-4 AM (DOJINDO LABORATORIES), 0.08% Pluronic F127 (DOJINDO LABORATORIES), 1.25 mM probenecid (DOJINDO LABORATORIES)) was added at 30 μL/well. The cells were left standing in the incubator at 37° C., 5% CO2 for 30 min, and further left standing at room temperature for 30 min. A test compound prepared by diluting with assay buffer B (HBSS (Invitrogen), 20 mM HEPES (Invitrogen), 0.1% BSA) containing 2.4-3.2 nM acetylcholine was added at 10 μL/well, and the fluorescence was measured by FLIPRtetra (Molecular Devices) for 1 min every 1 second. With the definition that the amount of change in the fluorescence on addition of acetylcholine (final concentration 1 μM) is 100% and that on addition of DMSO instead of a test compound is 0%, the activity (%) of the test compound was calculated, and the inflection point in the concentration-dependent curve of the test compound was calculated as IP values.

Turning to `Cc1nn(C)cc1-c1ccc(CN2Cc3ncnc(OCC(F)(F)F)c3C2=O)c(F)c1` [Example 36, 6-(4-(1,3-dimethyl-1H-pyrazol-4-yl)-2-fluorobenzyl)-4-(2,2,2-trifluoroethoxy)-6,7-dihydro-5H-pyrrolo[3,4-d]pyrimidin-5-one], the “activity (%) at 10 μM” value was found to be 99% and the EC50 turned out to be 22 nM.
The corresponding values for `CCn1cc(-c2ccc(CN3Cc4ncnc(OCC(F)(F)F)c4C3=O)cc2)cn1` [Example 37, 6-(4-(1-ethyl-1H-pyrazol-4-yl)benzyl)-4-(2,2,2-trifluoroethoxy)-6,7-dihydro-5H-pyrrolo[3,4-d]pyrimidin-5-one] are 98% and 46 nM.
The corresponding values for `Cc1nn(C)cc1-c1ccc(CN2Cc3ncnc(OCC(F)(F)F)c3C2=O)cc1` [Example 39, 6-(4-(1,3-dimethyl-1H-pyrazol-4-yl)benzyl)-4-(2,2,2-trifluoroethoxy)-6,7-dihydro-5H-pyrrolo[3,4-d]pyrimidin-5-one] are 93% and 40 nM.
The corresponding values for `Cc1nn(C)cc1-c1ccc(CN2Cc3ncnc(OCC(F)F)c3C2=O)c(F)c1` [Example 40, 4-(2,2-difluoroethoxy)-6-(4-(1,3-dimethyl-1H-pyrazol-4-yl)-2-fluorobenzyl)-6,7-dihydro-5H-pyrrolo[3,4-d]pyrimidin-5-one] are 96% and 9 nM.
Consider `Cc1nn(C)cc1-c1ccc(CN2Cc3ncnc(OCC(F)F)c3C2=O)cc1` [Example 42, 4-(2,2-difluoroethoxy)-6-(4-(1,3-dimethyl-1H-pyrazol-4-yl)benzyl)-6,7-dihydro-5H-pyrrolo[3,4-d]pyrimidin-5-one], for which the “activity (%) at 10 μM” value was 106% and the EC50 worked out at 23 nM.
With `CCn1cc(-c2ccc(CN3Cc4ncnc(OCC(C)(C)F)c4C3=O)c(F)c2)cn1` [Example 44, 6-(4-(1-ethyl-1H-pyrazol-4-yl)-2-fluorobenzyl)-4-(2-fluoro-2-methylpropoxy)-6,7-dihydro-5H-pyrrolo[3,4-d]pyrimidin-5-one], the “activity (%) at 10 μM” value is on record as 86% and the EC50 was found to be 6.7 nM.
For `CCn1cc(-c2ccc(CN3Cc4ncnc(OCC(C)(C)F)c4C3=O)cc2)cn1` [Example 45, 6-(4-(1-ethyl-1H-pyrazol-4-yl)benzyl)-4-(2-fluoro-2-methylpropoxy)-6,7-dihydro-5H-pyrrolo[3,4-d]pyrimidin-5-one] the same measures were 87% and 10 nM.
For `Cc1nn(C)cc1-c1ccc(CN2Cc3ncnc(OCC(C)(C)F)c3C2=O)c(F)c1` [Example 46, 6-(4-(1,3-dimethyl-1H-pyrazol-4-yl)-2-fluorobenzyl)-4-(2-fluoro-2-methylpropoxy)-6,7-dihydro-5H-pyrrolo[3,4-d]pyrimidin-5-one] the same measures were 90% and 5.2 nM.
For `O=C1c2c(ccnc2OCC(F)F)CN1Cc1ccc(-c2cnn(CC(F)F)c2)cc1F` [Example 56, 4-(2,2-difluoroethoxy)-2-(4-(1-(2,2-difluoroethyl)-1H-pyrazol-4-yl)-2-fluorobenzyl)-1,2-dihydro-3H-pyrrolo[3,4-c]pyridin-3-one] the same measures were 102% and 21 nM.
For `O=C1c2c(ccnc2OCC(F)F)CN1Cc1ccc(-c2cnn(CC(F)(F)F)c2)cc1F` [Example 57], the “activity (%) at 10 μM” value was found to be 101% and the EC50 was determined as 18 nM.
The corresponding values for `CCn1cc(-c2ccc(CN3Cc4ccnc(OCC(F)F)c4C3=O)c(F)c2)cn1` [Example 58, 4-(2,2-difluoroethoxy)-2-(4-(1-ethyl-1H-pyrazol-4-yl)-2-fluorobenzyl)-1,2-dihydro-3H-pyrrolo[3,4-c]pyridin-3-one] are 104% and 35 nM.
The corresponding values for `CCC(F)(F)COc1nccc2c1C(=O)N(Cc1ccc(-c3cnn(CC(F)F)c3)cc1F)C2` [Example 59, 4-(2,2-difluorobutoxy)-2-(4-(1-(2,2-difluoroethyl)-1H-pyrazol-4-yl)-2-fluorobenzyl)-1,2-dihydro-3H-pyrrolo[3,4-c]pyridin-3-one] are 107% and 17 nM.
The corresponding values for `CCn1cc(-c2ccc(CN3Cc4ccnc(OCC(F)(F)CC)c4C3=O)c(F)c2)cn1` [Example 60, 4-(2,2-difluorobutoxy)-2-(4-(1-ethyl-1H-pyrazol-4-yl)-2-fluorobenzyl)-1,2-dihydro-3H-pyrrolo[3,4-c]pyridin-3-one] are 94% and 7.4 nM.
`O=C1c2c(ccnc2OCC(F)F)CN1Cc1ccc(-c2cnn(CC(F)F)c2)cc1` [Example 61, 4-(2,2-difluoroethoxy)-2-(4-(1-(2,2-difluoroethyl)-1H-pyrazol-4-yl)benzyl)-1,2-dihydro-3H-pyrrolo[3,4-c]pyridin-3-one]: the “activity (%) at 10 μM” value turned out to be 91% and the EC50 was 51 nM.
The corresponding values for `CCC(F)(F)COc1nccc2c1C(=O)N(Cc1ccc(-c3cnn(CC(F)(F)F)c3)cc1F)C2` [Example 62, 4-(2,2-difluorobutoxy)-2-(2-fluoro-4-(1-(2,2,2-trifluoroethyl)-1H-pyrazol-4-yl)benzyl)-1,2-dihydro-3H-pyrrolo[3,4-c]pyridin-3-one] are 91% and 40 nM.
On to `CCC(F)(F)COc1nccc2c1C(=O)N(Cc1ccc(-c3cnn(C(F)F)c3)cc1)C2` [Example 63, 4-(2,2-difluorobutoxy)-2-(4-(1-(difluoromethyl)-1H-pyrazol-4-yl)benzyl)-1,2-dihydro-3H-pyrrolo[3,4-c]pyridin-3-one], for which the “activity (%) at 10 μM” value is listed as 91% and the EC50 came to 96 nM.
Consider `O=C1c2c(ccnc2OCC(F)F)CN1Cc1ccc(-c2cnn(CC(F)(F)F)c2)cc1` [Example 65, 4-(2,2-difluoroethoxy)-2-(4-(1-(2,2,2-trifluoroethyl)-1H-pyrazol-4-yl)benzyl)-1,2-dihydro-3H-pyrrolo[3,4-c]pyridin-3-one], for which the “activity (%) at 10 μM” value amounted to 106% and the EC50 turned out to be 91 nM.
The corresponding values for `CCn1cc(-c2ccc(CN3Cc4ccnc(OCC(F)F)c4C3=O)cc2)cn1` [Example 66, 4-(2,2-difluoroethoxy)-2-(4-(1-ethyl-1H-pyrazol-4-yl)benzyl)-1,2-dihydro-3H-pyrrolo[3,4-c]pyridin-3-one] are 105% and 66 nM.
The corresponding values for `CCn1cc(-c2ccc(CN3Cc4ncnc(OCC(F)(F)CC)c4C3=O)cc2)cn1` [Example 68, 4-(2,2-difluorobutoxy)-6-(4-(1-ethyl-1H-pyrazol-4-yl)benzyl)-6,7-dihydro-5H-pyrrolo[3,4-d]pyrimidin-5-one] are 97% and 7.1 nM.
In the case of `CCC(F)(F)COc1ncnc2c1C(=O)N(Cc1ccc(-c3cnn(CC(F)(F)F)c3)cc1)C2` [Example 69, 4-(2,2-difluorobutoxy)-(4-(1-(2,2,2-trifluoroethyl)-1H-pyrazol-4-yl)benzyl)-6,7-dihydro-5H-pyrrolo[3,4-d]pyrimidin-5-one], the “activity (%) at 10 μM” value stood at 88% and the EC50 amounted to 9.6 nM.
For `CCC(F)(F)COc1nccc2c1C(=O)N(Cc1ccc(-c3cn[nH]c3)cc1)C2` [Example 72, 4-(2,2-difluorobutoxy)-2-(4-(1H-pyrazol-4-yl)benzyl)-1,2-dihydro-3H-pyrrolo[3,4-c]pyridin-3-one] the same measures were 90% and 59 nM.
For the molecule `CCC(F)(F)COc1nccc2c1C(=O)N(Cc1ccc(-c3cnn(CC(F)(F)F)c3)cc1)C2` [Example 73, 4-(2,2-difluorobutoxy)-2-(4-(1-(2,2,2-trifluoroethyl)-1H-pyrazol-4-yl)benzyl)-1,2-dihydro-3H-pyrrolo[3,4-c]pyridin-3-one], the “activity (%) at 10 μM” value is 94% and the EC50 came out at 50 nM.
As to `CCC(F)(F)COc1ncnc2c1C(=O)N(Cc1ccc(-c3cn(C)nc3C)cc1F)C2` [Example 74, 4-(2,2-difluorobutoxy)-6-(4-(1,3-dimethyl-1H-pyrazol-4-yl)-2-fluorobenzyl)-6,7-dihydro-5H-pyrrolo[3,4-d]pyrimidin-5-one], the “activity (%) at 10 μM” value was determined as 101% and the EC50 was 8.7 nM.

For the origin of these results see patent US10208046B2, “Nitrogen-containing heterocyclic compound” (Takeda Pharmaceutical Company Limited, priority 2014, dated 2019).
